Data on 87 compounds can be found in a melting point compilation (Tetko et al.; mined from patent text by program, amines drawn as free bases though some values may be those of a salt).

As a reminder, the melting point is the temperature, or range, at which the solid turns liquid.

In turn, `CC(=O)N(O)Cc1ccccc1Nc1c(Cl)ccc(C)c1Cl` returned a melting point of 155 to 156 °C.
As to `COc1ccc(-c2ccnc(Nc3cc(OC)c(OC)c(OC)c3)n2)cc1`, the melting point was 148 to 150 °C.
For the compound `CC(=S)O/C=C\n1nnnc1C`, the melting point is 135 to 137 °C.
Take `OC(Cn1cncn1)(CC(Cl)(Cl)Cl)c1ccc(F)cc1` (configuration not stated): the melting point turned out to be 127 °C.
For `O=C(Oc1ccc2ncccc2c1)c1ccccc1`, the melting point was in the range of 77 to 79 °C.
In the case of `CC(C)(Oc1ccc(Cl)cc1)C(=O)NCCCn1ccnc1`, the melting point lay in the range of 83 to 84 °C.
With `COC(=O)C1=Cc2cc(Br)ccc2SCC1`, the melting point is 94 to 95 °C.
On to `CCOC(=O)c1cc2cc(-c3ccccc3)ccc2o1`, for which the melting point is 109 to 110 °C.
With `CCOC(=O)C1=C(C2CC2)Nc2n[nH]cc2C1c1cccc(C#N)c1Br` (configuration not stated), the melting point was in the range of 168 to 170 °C.
The compound `COc1ccc(N)c(OCC(N)=O)c1` yielded a melting point of 139 to 140 °C.
As for `COc1cc(C(C)C)c2oc3ccccc3c2c1C(=O)Nc1c(Cl)cncc1Cl`, the melting point is 209 to 211 °C.
Turning to `CCOc1cc(C(F)(F)F)cc(Cl)c1-n1nc(C#N)c(SC(F)(F)F)c1N`, the melting point stood at 166 °C.
Compound `CC(CCC=O)C1CC=C2C3=C(CCC21C)C1(C)CCC(=O)C(C)(C)C1CC3` (configuration not stated) yielded a melting point of 96.5 to 97 °C.
`COc1ccc(OC)c2c1C(=O)C=C(SCCC(=O)O)C2=O` showed a melting point of 208 to 209 °C.
Consider `O=C(O)C(=O)c1cn(Cc2ccc(F)cc2)c2ccc(OCCc3ccc(F)cc3)cc12`, for which the melting point was 171 to 173 °C.
Compound `CCc1c(-c2ccc(O)cc2)c2cc(COCCN(CC)CC)c3cccc1n32` returned a melting point of 93 to 95 °C.
Consider `O=c1[nH]c2ccc(O)cc2n1CCN1CCN(c2cccc(C(F)(F)F)c2)CC1`, for which the melting point is above 250 °C.
Consider `Nc1c(Br)cc(N=C2NCCN2)cc1Br`, for which the melting point was in the range of 152 to 153 °C.
`COC(=O)c1ccc(-c2oc3nc[nH]c(=O)c3c2C(=O)OCc2ccccc2)cc1` returned a melting point of 248 to 249 °C.
For the compound `O=C1N=C(Cc2c[nH]c3ccccc23)C(CCc2cc(C(F)(F)F)cc(C(F)(F)F)c2)O1` (configuration not stated), the melting point fell in the range of 178 to 180 °C.
As for `O=C(c1cc2cc([N+](=O)[O-])ccc2[nH]1)N1CCC(Cc2ccccc2)CC1`, the figure is 220 to 224 °C.
As for `CS(=O)(=O)Oc1ccc([N+](=O)[O-])c(O)c1`, the figure is 123 to 124 °C; as for `CC(=O)c1sc(N2CCN(CC3CC3(F)F)C2=O)nc1C` (configuration not stated), 146 to 148 °C; as for `CCCCCC[C@H](C)Oc1ccc(-c2ccc(O)c([N+](=O)[O-])c2)cc1`, 40 °C.
`O=S1(=O)c2cccc3cccc(c23)N1CCCCN1CC=C(c2c[nH]c3ccccc23)CC1`: the melting point was found to be 203 °C.
`CCC1(C)CC(C#N)(NC(=O)Nc2ccccc2)C(C)C(C)(CC)N1` (configuration not stated) registered a melting point of 167 to 170 °C.
As for `CC(=O)CC(=O)C=Cc1ccccc1`, the figure is 82 °C; as for `C[C@H]1CC[C@H]2C(C)(C)[C@H](OS(=O)(=O)c3ccccc3)CC[C@]23Oc2c(c(O)cc4c2CNC4=O)C[C@]13C`, 160 to 162 °C; as for `O=CN1CCSc2ccccc2C1`, 84 to 87 °C.
With `CN1C(=O)C(c2cccc(-c3ccccc3)c2)(C2CCN(C(=O)c3cccs3)CC2)N=C1N` (configuration not stated), the melting point was in the range of 135 to 137 °C.
Compound `COC(=O)C(C#N)CC(=S)c1ccc(C)cc1` (configuration not stated) yielded a melting point of 88 to 90 °C.
As for `CCOC(=O)c1nn(-c2c(Cl)cc(C(F)(F)F)cc2Cl)cc1OC(F)(F)C(F)Cl` (racemic), the figure is 105 to 106 °C; as for `O=C(O)Cc1cccc(NC(=O)NCC(=O)N2[C@@H](c3ccccc3O)CC[C@H]2c2ccccc2)c1` (racemic), 165 °C; as for `COC(=O)c1ccc(N=Cc2cccc(F)c2)cn1`, 111 to 114 °C.
The compound `O=C(O)c1cc(CN2C(=O)C3(COc4cc5c(cc43)OCO5)c3ccccc32)oc1C(F)(F)F` (configuration not stated) displayed a melting point of 195 to 197 °C.
As for `CN(C)CCCCCCSc1ncccc1C(=O)c1cccs1`, the figure is 69 to 71 °C; as for `COc1ccnc(NC(=O)NS(=O)(=O)c2ccccc2-c2nn(C)c(=O)o2)n1`, 223 to 224 °C.
`Cc1cc(CC(Cc2cc(C)c(O)c(C(C)(C)C)c2)(C(=O)OC2CC(C)(C)N(C)C(C)(C)C2)C(=O)OC2CC(C)(C)N(C)C(C)(C)C2)cc(C(C)(C)C)c1O` yielded a melting point of 150 °C.
Take `O=C(Nc1ccc(F)c(NS(=O)(=O)c2cccs2)c1)c1ccc(F)c(F)c1`: the melting point was 202 to 203 °C.
As for `COc1cccc(CC(=O)O)c1OCCCc1cn(-c2ccc(C)cn2)nc1C(C)C`, the figure is 132 to 133 °C; as for `COc1cc2c(c3c1OC(C)(C)C3)C(c1cccc(C(=O)N[C@H]3CNC3=O)c1)=NC(C)(C)C2`, 154 to 157 °C; as for `N#CC(c1ccc(F)cc1)c1ccc([N+](=O)[O-])cc1C(F)(F)F` (configuration not stated), 68 °C.
For `CSC(Nc1cc(C(F)(F)F)cc(C(F)(F)F)c1)=C(C#N)S(C)(=O)=O`, the melting point fell in the range of 129 to 131 °C.
On to `CC1Oc2c(F)cc(CN3CC=C(c4ccc(Cl)cc4)CC3)cc2NC1=O` (configuration not stated), for which the melting point lay within 214 to 233 °C.
The compound `Cc1cc(Nc2ccn(-c3ccccc3)n2)cc(C)c1O` displayed a melting point of 154 to 155 °C.
Compound `COc1ccc(C(O)(Cc2ccncc2)c2cccs2)cc1OC1CCCC1` (configuration not stated) came in with a melting point of 57 to 67 °C.
Take `COc1cc(C(C)C)c2c(c1)S(=O)(=O)N(COC(=O)c1c(C)noc1C)C2=O`: the melting point lay in the range of 137 to 139 °C.
Turning to `N#Cc1cccc(Oc2ccccc2N)c1C#N`, the melting point was 132 °C.
In turn, `CN(C(=O)c1cc2ccccc2c(-c2ccccc2Cl)n1)C1CCCCC1` displayed a melting point of 131 °C.
In turn, `Cc1nc(C)c(C(C)(O)c2cocc2Br)o1` (configuration not stated) had a melting point of 124 to 125 °C.
`O=C1c2ccccc2C(=O)c2c1oc1ccc3cc(O)ccc3c21` came in with a melting point of 318 °C.
As for `CN(C)c1ccc(N2CCN(Cc3c[nH]c4ncccc34)CC2)cc1`, the figure is 199 to 201 °C; as for `CC1(C)CCC(C)(C)c2cc(C(=O)CSc3ccc(C(=O)O)cc3)ccc21`, 175 to 179 °C.
As for `O=C(NCCCC[C@@H](C(=O)O)n1c2ccccc2c2ccccc21)c1ccc(C(=O)c2ccccc2)cc1`, the figure is 97 to 98 °C.
As for `Cc1nc(-c2ccccc2)nc(N2CCN(c3ccc(O)cc3)CC2)c1C`, the figure is 202 °C.
`O=C(O)c1[nH]c2cc(Cl)cc(Cl)c2c1N(Cc1ccccc1)C(=O)c1ccccc1`: the melting point lay within 266 to 267 °C.
`CCCCCCC(C)(C)c1ccc(C2CC(=O)C=C(C)C2)c(OCc2ccccc2)c1` (configuration not stated) yielded a melting point of 60 to 61 °C.
As for `O=C(O)CC1SCCOC1=O` (configuration not stated), the figure is 96 to 98 °C; as for `O=C1c2cc(Cl)ccc2Cc2cccc(Cl)c21`, 160 to 165 °C.
With `COc1ccc(CCCc2ccc(O)cc2O)c(OC)c1C`, the melting point amounted to 108 °C.
`COc1ccc(/C=C/C(=O)Nc2ccccc2C(=O)OCC(=O)NCC(C)(C)S)cc1OC` returned a melting point of 148 to 150 °C.
For `Nc1nnc(-c2cc(Cl)cc(Cl)c2O)s1`, the melting point is 268 °C.
Regarding `Cc1ncccc1Oc1ccc(C(=N)Nc2cc(Cl)cc(NC(=O)C=Cc3ccccc3C(F)(F)F)c2)cc1`, the melting point is 114 to 119 °C.
Consider `CCc1cccc(CC)c1NC(=O)C1c2ccccc2COc2ccc(Br)cc21` (configuration not stated), for which the melting point lay in the range of 234 to 235 °C.
In turn, `Cc1c(NC(=O)CC(C)(C)C)cc2c(c1C)OC(C)(C)C2(O)c1ccc(Br)cc1` (configuration not stated) returned a melting point of 118 to 119 °C.
Consider `Nc1cccc2c3c([nH]c12)C=C(NC(=O)c1ccc(F)cc1)C=CC3`, for which the melting point was in the range of 121 to 122 °C.
As for `CC1(C)SC(c2cc3ccccc3o2)NC1C(=O)O` (configuration not stated), the figure is 96 °C; as for `CCn1cc2c3c(cccc31)CN(C(=O)OCc1ccccc1)C2`, 112 to 114 °C.
In turn, `N=C(Nc1ccc(CCCC(=O)Nc2ccccc2)cc1)N1CCCC1` showed a melting point of 164 to 165 °C.
`Cc1cc2nc3c4cc(Br)ccc4n(CCN(C)C)c3nc2cc1C` displayed a melting point of 146 to 147 °C.
For the compound `CCCCCCCC[C@@H](O)C(=O)Nc1c(SC)ccc2ncccc12`, the melting point is 119 to 120 °C.
`CN1c2cscc2C(=O)N(Cc2ccccc2)c2ccccc21` gave a melting point of 137 to 138 °C.
As for `CC(C)N(C(=O)CNc1ccccc1N)c1ccccc1`, the figure is 110 to 112 °C.
Take `CC(C)Cc1nn(C)c(=O)c2cc(C(O)c3cccc4ccccc34)oc12` (configuration not stated): the melting point is 110 to 112 °C.
As for `COC(=O)C1=C(CCc2ccccc2OC)NC(CC(=O)N2CCN(CCCN(C)C)CC2)=C(C(=O)OC)C1c1c(Cl)cccc1Cl` (configuration not stated), the figure is 156 to 158 °C; as for `Cc1nc(N)c2nc(C)n(CCCCCS(=O)(=O)c3ccccc3)c2c1C`, 166 to 167 °C.
`N#CCNC(=O)Cc1ccccc1` yielded a melting point of 87 to 91 °C.
Consider `CC1CCC(C(C)C)C(OC(=O)N2CC(=O)N(C)c3ccc(Cl)cc3C2c2ccccc2)C1` (configuration not stated), for which the melting point was 144 °C.
`COc1ccc(SC2CC(=O)NC2=O)cc1` (configuration not stated): the melting point fell in the range of 93 to 94 °C.
As for `Nc1cc(Br)nc(Br)c1[N+](=O)[O-]`, the figure is 140 °C; as for `CS(=O)(=O)N1CCN([C@@H](CNS(=O)(=O)c2ccc(OCc3ccc(C#N)cc3)cc2)C(=O)NO)CC1`, 108 °C; as for `CCCCCCCCC(SCCCCCC)C(=O)Nc1c(OC)ccc2ncccc12` (configuration not stated), 88 to 89 °C.
For the compound `O=C1CCC(=O)N1CCCCCNC(=O)n1cc(F)c(=O)[nH]c1=O`, the melting point is 142 °C.
As for `S=c1[nH]cnn1C[C@]1(c2ccccc2)O[C@@H]1c1ccc(Cl)c(Cl)c1Cl` (relative stereo), the figure is 168 to 171 °C; as for `COc1ccc(C2CC(=O)C(=C3SC4NCCNC4S3)C(=O)C2)cc1` (configuration not stated), 160 to 162 °C.
The compound `CCOC(=O)C(C#N)=Cc1c(Cl)n(Cc2ccccc2)c2ccccc12` registered a melting point of 130 to 131 °C.
Turning to `Nc1nc(-n2cc(C(=O)O)c(=O)c3c(N)c(F)c(F)c(Cl)c32)c(F)cc1F`, the melting point was found to be 280 °C.
